Article PMC10078976 (Nature chemistry, 2022)

What was measured:
[1] = lasso peptides, aspartimide hydrolysis; cited from earlier work
[2] = target: unmodified C62A ThfA (Thermobifida fusca); assay: BLI
[3] = target: doubly dehydrated C62A ThfA (Thermobifida fusca); assay: BLI

| Kd [2] | Kd [3] | Molecule | regioselectivity of aspartimide opening [1] |
| --- | --- | --- | --- |
| – | – | cellulonodin-2 | open exclusively to the Asp backbone form |
| – | – | lihuanodin | open exclusively to the Asp backbone form |
| 28 nM | 18 nM | maltose binding protein (MBP) fusion to ThfB (enzyme, modifications not checked) MSQAEYEFAATEARRGFGGIINSLTGWINHPSAIGRAEYKPYQLHHAVQAGLNVPRTLITNDPKQAKGWCARVGDVVYKPLSAPSWLENGDTYVVFTTPITPDQWGDPAIGRTAHMFQQRLDKEFEVRLTMVDGKAFPAAIHAHSDAARIDWRSDYDALTYSIPTVPQRVLTGARDLLRRLHLRYAALDFIVSPDGRWHFLEVNPNGQYGWIEEHTGQPISDAIADALTRKEN | – |
